pEC50: −log10 of the molar value. Starred links: 1 amine or outer side, 2 acyl side, 3 side chain; linkers in the order of their positions; H or OH if unused. Non-standard residues stand in square brackets, D forms with d. Residues, ends and D or L forms follow the SMILES beside them. Groups on a side chain read outwards from the residue. *: point of attachment. C20 diacid = O=C(O)CCCCCCCCCCCCCCCCCCC(=O)*; C18 diacid = O=C(O)CCCCCCCCCCCCCCCCC(=O)*; γGlu = O=C(O)[C@H](CCC(=O)[*:2])N[*:1]; Palmitoyl = CCCCCCCCCCCCCCCC(=O)*; NMeI = CC[C@H](C)[C@H](NC)C(=O)O; AEEA = NCCOCCOCC(=O)O
Target: T1, human CRHR2b (Homo sapiens, UniProt Q13324)
T1 construct: expressed in transfected cells; host or cells: Chinese Hamster Ovary (CHO) cells, transient transfection
T1 sequence (Q13324 1-438 isoform Q13324-2): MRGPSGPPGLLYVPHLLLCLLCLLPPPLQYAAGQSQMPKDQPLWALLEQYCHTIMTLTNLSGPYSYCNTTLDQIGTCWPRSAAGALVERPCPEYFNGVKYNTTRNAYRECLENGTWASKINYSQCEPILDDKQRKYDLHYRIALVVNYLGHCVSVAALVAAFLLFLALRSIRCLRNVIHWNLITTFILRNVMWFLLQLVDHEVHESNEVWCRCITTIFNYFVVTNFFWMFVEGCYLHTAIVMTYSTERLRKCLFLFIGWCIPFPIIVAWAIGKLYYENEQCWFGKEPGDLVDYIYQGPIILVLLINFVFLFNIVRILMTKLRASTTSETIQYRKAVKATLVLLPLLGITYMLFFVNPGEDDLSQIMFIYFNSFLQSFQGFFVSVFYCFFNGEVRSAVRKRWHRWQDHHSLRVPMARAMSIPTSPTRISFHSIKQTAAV
Test: human CRHR2b cell-based cAMP assay
Conditions: cAMP assay; Table 26, compounds of Example 9; read-out: hCRHR2b Average EC50
Experimental: CRHR agonistic activity is measured in a cell-based cAMP assay. Serial dilutions of the test peptides are made in assay buffer containing Hank's Balanced Salt Solution (HBSS, without phenol red) supplemented with 20 mM HEPES and 0.05% lactalbumin enzymatic hydrolysate (LAH) (“assay buffer”). […] A one to three dilution of the test peptides is used in both assays. Receptor over-expressing Chinese Hamster Ovary (CHO) cell line is used for the human CRHR2b assay. […] AF011406.1). Forty-eight hours after the transfection, the cells are centrifuged to remove the culture media and resuspended in fetal bovine serum containing 5% DMSO. They are cryofrozen and stored in vials in liquid nitrogen (20×10^6 cells/ml/vial). On the day of the assay, cells are thawed and resuspended in cold 30 ml culture media supplemented with 20 mM HEPES. The cells are then centrifuged to remove the media and washed once with HBSS supplemented with 20 mM HEPES. Finally, following the last centrifugation, the cells are resuspended in assay buffer. Thirty-thousand cells are used in the human CRHR2b assay for each treatment. The cells are dispensed into Costar 96-well black polystyrene half area EIA/RIA plates (Corning Incorporated, Corning, N.Y.) followed by the addition of the diluted peptides, each at a volume of 20 μL. The agonist induced cAMP levels are detected using a HTRF cAMP Dynamic 2 kit (CisBio, Bedford, Mass.). After incubation at 37° C. for 30 min, the assay is stopped by cell lysis via the addition of 20 μL of d2-labeled cAMP and followed by 20 μL of cryptate-labeled anti-cAMP antibody, as described by the manufacturer. Cellular cAMP (as a result of agonist stimulation) competes with the d2-labeled cAMP for binding to the antibody. HTRF detection is performed on an Envision plate reader (Perkin Elmer Life and Analytical Sciences, Waltham, Mass.) by measuring ratiometric emission at 620 and 665 nm after excitation at 320 nm. The data are converted to picomoles of cAMP using a standard curve obtained from the same assay performed with varying concentrations of unlabeled cAMP. […] The data are analyzed using a Curve Fitting Tool to calculate ED50. Numeric values shown below in Table 1 represent the mean of multiple runs (number of runs shown in parentheses) following the mean value±SEM.

| SMILES | pEC50 |
| --- | --- |
| CC[C@H](C)[C@H](N)C(=O)N[C@H](C(=O)N[C@@H](CC(C)C)C(=O)N[C@@H](CO)C(=O)N[C@@H](CC(C)C)C(=O)N[C@@H](CC(=O)O)C(=O)N[C@H](C(=O)N1CCC[C@H]1C(=O)N[C@H](C(=O)NCC(=O)N[C@@H](CC(C)C)C(=O)N[C@@H](CC(C)C)C(=O)N[C@@H](CCC(N)=O)C(=O)N[C@H](C(=O)N[C@@H](CC(C)C)C(=O)N[C@@H](CC(C)C)C(=O)N[C@@H](CCC(=O)O)C(=O)N[C@@H](CCC(N)=O)C(=O)N[C@@H](CCC(=O)O)C(=O)N[C@@H](CCCCN)C(=O)N[C@@H](CCC(N)=O)C(=O)N[C@@H](CCC(=O)O)C(=O)N[C@@H](CCCCN)C(=O)N[C@@H](CCC(=O)O)C(=O)N[C@@H](CCCCN)C(=O)N[C@@H](CCCCNC(=O)COCCOCCNC(=O)COCCOCCNC(=O)CC[C@H](NC(=O)CC[C@H](NC(=O)CCCCCCCCCCCCCCCCC(=O)O)C(=O)O)C(=O)O)C(=O)N[C@@H](CCC(N)=O)C(=O)N[C@@H](C)C(=O)N[C@H](C(=O)N[C@@H](CCC(=O)O)C(=O)N[C@@H](CC(N)=O)C(=O)N[C@@H](C)C(=O)N[C@@H](CCC(N)=O)C(=O)N[C@H](C(=O)N[C@@H](CC(C)C)C(=O)N[C@@H](C)C(=O)N[C@@H](CCC(N)=O)C(=O)N[C@H](C(N)=O)C(C)C)[C@@H](C)CC)[C@@H](C)O)[C@@H](C)CC)[C@@H](C)CC)C(C)C)C(C)C [Compound 54] (H-IVLSLDVPIGLLQILLEQEKQEKEKK([AEEA-AEEA-γGlu-γGlu-C18 diacid])QATENAQILAQV-NH2) | 8.37 |
| CC[C@H](C)[C@H](N)C(=O)N[C@H](C(=O)N[C@@H](CC(C)C)C(=O)N[C@@H](CO)C(=O)N[C@@H](CC(C)C)C(=O)N[C@@H](CC(=O)O)C(=O)N[C@H](C(=O)N1CCC[C@H]1C(=O)N[C@H](C(=O)NCC(=O)N[C@@H](CC(C)C)C(=O)N[C@@H](CC(C)C)C(=O)N[C@@H](CCC(N)=O)C(=O)N[C@H](C(=O)N[C@@H](CCCCNC(=O)COCCOCCNC(=O)COCCOCCNC(=O)CC[C@H](NC(=O)CC[C@H](NC(=O)CCCCCCCCCCCCCCCCC(=O)O)C(=O)O)C(=O)O)C(=O)N[C@@H](CC(C)C)C(=O)N[C@@H](CCC(=O)O)C(=O)N[C@@H](CCC(N)=O)C(=O)N[C@@H](CCC(=O)O)C(=O)N[C@@H](CCCCN)C(=O)N[C@@H](CCC(N)=O)C(=O)N[C@@H](CCC(=O)O)C(=O)N[C@@H](CCCCN)C(=O)N[C@@H](CCC(=O)O)C(=O)N[C@@H](CCCCN)C(=O)N[C@@H](CCC(N)=O)C(=O)N[C@@H](CCC(N)=O)C(=O)N[C@@H](C)C(=O)N[C@H](C(=O)N[C@H](C(=O)N[C@@H](CC(N)=O)C(=O)N[C@@H](C)C(=O)N[C@@H](CCC(N)=O)C(=O)N[C@H](C(=O)N[C@@H](CC(C)C)C(=O)N[C@@H](C)C(=O)N[C@@H](Cc1c[nH]cn1)C(=O)N[C@H](C(N)=O)C(C)C)[C@@H](C)CC)[C@@H](C)O)[C@@H](C)O)[C@@H](C)CC)[C@@H](C)CC)C(C)C)C(C)C [Compound 41] (H-IVLSLDVPIGLLQIK([AEEA-AEEA-γGlu-γGlu-C18 diacid])LEQEKQEKEKQQATTNAQILAHV-NH2) | 6.68 |
| CCCCCCCCCCCCCCCC(=O)N[C@@H](CCC(=O)NCCCC[C@H](NC(=O)[C@H](CCC(N)=O)NC(=O)[C@H](CC(C)C)NC(=O)[C@H](CC(C)C)NC(=O)CNC(=O)[C@@H](NC(=O)[C@@H]1CCCN1C(=O)[C@@H](NC(=O)[C@H](CC(=O)O)NC(=O)[C@H](CC(C)C)NC(=O)[C@H](CO)NC(=O)[C@H](CC(C)C)NC(=O)[C@@H](NC(=O)[C@@H](N)[C@@H](C)CC)C(C)C)C(C)C)[C@@H](C)CC)C(=O)N[C@@H](CC(C)C)C(=O)N[C@@H](CC(C)C)C(=O)N[C@@H](CCC(=O)O)C(=O)N[C@@H](CCC(N)=O)C(=O)N[C@@H](CCC(=O)O)C(=O)N[C@@H](CCCCN)C(=O)N[C@@H](CCC(N)=O)C(=O)N[C@@H](CCC(=O)O)C(=O)N[C@@H](CCCCN)C(=O)N[C@@H](CCC(=O)O)C(=O)N[C@@H](CCCCN)C(=O)N[C@@H](CCC(N)=O)C(=O)N[C@@H](CCC(N)=O)C(=O)N[C@@H](C)C(=O)N[C@H](C(=O)N[C@H](C(=O)N[C@@H](CC(N)=O)C(=O)N[C@@H](C)C(=O)N[C@@H](CCCNC(=N)N)C(=O)N[C@H](C(=O)N[C@@H](CC(C)C)C(=O)N[C@@H](C)C(=O)N[C@@H](CCCNC(=N)N)C(=O)N[C@H](C(N)=O)C(C)C)[C@@H](C)CC)[C@@H](C)O)[C@@H](C)O)C(=O)O [Compound 21] (H-IVLSLDVPIGLLQK([γGlu-Palmitoyl])LLEQEKQEKEKQQATTNARILARV-NH2) | 8.28 |

Second part, the compound after the results:

| pEC50 | SMILES |
| --- | --- |
| 7.56 | CC[C@H](C)[C@H](N)C(=O)N[C@H](C(=O)N[C@@H](CC(C)C)C(=O)N[C@@H](CO)C(=O)N[C@@H](CC(C)C)C(=O)N[C@@H](CC(=O)O)C(=O)N[C@H](C(=O)N1CCC[C@H]1C(=O)N[C@H](C(=O)NCC(=O)N[C@@H](CC(C)C)C(=O)N[C@@H](CC(C)C)C(=O)N[C@@H](CCC(N)=O)C(=O)N[C@H](C(=O)N[C@@H](CC(C)C)C(=O)N[C@@H](CC(C)C)C(=O)N[C@@H](CCC(=O)O)C(=O)N[C@@H](CCC(N)=O)C(=O)N[C@@H](CCC(=O)O)C(=O)N[C@@H](CCCCN)C(=O)N[C@@H](CCCCNC(=O)COCCOCCNC(=O)COCCOCCNC(=O)CC[C@H](NC(=O)CC[C@H](NC(=O)CCCCCCCCCCCCCCCCC(=O)O)C(=O)O)C(=O)O)C(=O)N[C@@H](CCC(=O)O)C(=O)N[C@@H](CCCCN)C(=O)N[C@@H](CCC(=O)O)C(=O)N[C@@H](CCCCN)C(=O)N[C@@H](CCC(N)=O)C(=O)N[C@@H](CCC(N)=O)C(=O)N[C@@H](C)C(=O)N[C@H](C(=O)N[C@H](C(=O)N[C@@H](CC(N)=O)C(=O)N[C@@H](C)C(=O)N[C@@H](CCC(N)=O)C(=O)N[C@H](C(=O)N[C@@H](CC(C)C)C(=O)N[C@@H](C)C(=O)N[C@@H](Cc1c[nH]cn1)C(=O)N[C@H](C(N)=O)C(C)C)[C@@H](C)CC)[C@@H](C)O)[C@@H](C)O)[C@@H](C)CC)[C@@H](C)CC)C(C)C)C(C)C [Compound 45] (H-IVLSLDVPIGLLQILLEQEKK([AEEA-AEEA-γGlu-γGlu-C18 diacid])EKEKQQATTNAQILAHV-NH2) |
| 8.60 | CC[C@H](C)[C@H](NC)C(=O)N[C@H](C(=O)N[C@@H](CC(C)C)C(=O)N[C@@H](CO)C(=O)N[C@@H](CC(C)C)C(=O)N[C@@H](CC(=O)O)C(=O)N[C@H](C(=O)N1CCC[C@H]1C(=O)N[C@H](C(=O)NCC(=O)N[C@@H](CC(C)C)C(=O)N[C@@H](CC(C)C)C(=O)N[C@@H](CCC(N)=O)C(=O)N[C@H](C(=O)N[C@@H](CC(C)C)C(=O)N[C@@H](CC(C)C)C(=O)N[C@@H](CCC(=O)O)C(=O)N[C@@H](CCC(N)=O)C(=O)N[C@@H](CCC(=O)O)C(=O)N[C@@H](CCCCN)C(=O)N[C@@H](CCC(N)=O)C(=O)N[C@@H](CCC(=O)O)C(=O)N[C@@H](CCCCN)C(=O)N[C@@H](CCC(=O)O)C(=O)N[C@@H](CCCCN)C(=O)N[C@@H](CCC(N)=O)C(=O)N[C@@H](CCC(N)=O)C(=O)N[C@@H](C)C(=O)N[C@@H](CCCCNC(=O)CC[C@H](NC(=O)COCCOCCNC(=O)CC[C@H](NC(=O)CC[C@H](NC(=O)CCCCCCCCCCCCCCCCCCC(=O)O)C(=O)O)C(=O)O)C(=O)O)C(=O)N[C@H](C(=O)N[C@@H](CC(N)=O)C(=O)N[C@@H](C)C(=O)N[C@@H](CCC(N)=O)C(=O)N[C@H](C(=O)N[C@@H](CC(C)C)C(=O)N[C@@H](C)C(=O)N[C@@H](CCC(N)=O)C(=O)N[C@H](C(N)=O)C(C)C)[C@@H](C)CC)[C@@H](C)O)[C@@H](C)CC)[C@@H](C)CC)C(C)C)C(C)C [Compound 61] (H-[NMeI]VLSLDVPIGLLQILLEQEKQEKEKQQAK([γGlu-AEEA-γGlu-γGlu-C20 diacid])TNAQILAQV-NH2) |
